From patent publication US20060035838A1, “Drug therapy for celiac sprue” (The Board of Trustees of the Leland Stanford Junior …, priority 2002, published 2006)
Read-outs that look alike come from different tables or passages of the source. *1 amine or outer side, *2 acyl side, *3 side chain or, on linkers, in order; H or OH if unused. Where a SMILES comes first, the peptide text is derived from it. [ ]: non-standard residue; d: D form. X1 = O=C([C@@H](N[*:1])[C@@H]1CC(Cl)=NO1)[*:2]; DON = [N-]=[N+]=CC(=O)CC[C@H](N)C(=O)O

Experiments:
[1] = target: T1, recombinant human tissue transglutaminase (Homo sapiens, UniProt P21980); test: Inhibition of tissue transglutaminase (residual tTG activity, glutamate dehydrogenase coupled assay); type: biochemical; design: made in house
T1 sequence (P21980 1-687): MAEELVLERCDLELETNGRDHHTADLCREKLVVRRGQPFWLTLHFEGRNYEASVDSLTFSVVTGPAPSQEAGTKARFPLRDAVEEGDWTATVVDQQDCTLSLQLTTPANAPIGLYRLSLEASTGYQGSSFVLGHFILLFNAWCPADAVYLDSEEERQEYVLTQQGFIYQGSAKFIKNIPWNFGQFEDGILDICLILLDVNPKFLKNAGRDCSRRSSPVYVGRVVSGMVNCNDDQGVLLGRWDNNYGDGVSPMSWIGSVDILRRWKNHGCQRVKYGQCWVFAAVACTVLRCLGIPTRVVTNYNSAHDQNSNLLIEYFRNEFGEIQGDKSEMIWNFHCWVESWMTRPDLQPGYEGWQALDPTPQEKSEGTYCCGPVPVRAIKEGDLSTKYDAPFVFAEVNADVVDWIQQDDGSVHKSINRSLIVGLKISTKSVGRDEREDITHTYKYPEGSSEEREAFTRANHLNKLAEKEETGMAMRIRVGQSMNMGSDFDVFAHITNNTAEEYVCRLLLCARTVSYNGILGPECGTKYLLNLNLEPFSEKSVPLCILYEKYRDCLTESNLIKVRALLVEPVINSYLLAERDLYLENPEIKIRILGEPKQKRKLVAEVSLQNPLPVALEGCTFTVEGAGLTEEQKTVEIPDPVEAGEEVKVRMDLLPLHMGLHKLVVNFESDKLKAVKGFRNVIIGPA

[2] = target: T1, recombinant human tissue transglutaminase; test: Catalysis of reactive glutamine substrates by tissue transglutaminase; settings: read-out: KM (reactive motif Gln); X = Gln, substrate
[3] = substrate: NCCc1c[nH]cn1; test: purified protein, by the assay type; settings: other: nucleophilic amine co-substrate
[4] = substrate: CC(=O)N1CCC[C@H]1C(=O)N[C@@H](CCC(N)=O)C(=O)N1CCC[C@H]1C(=O)N[C@@H](CCC(N)=O)C(=O)N[C@@H](CC(C)C)C(=O)N1CCC[C@H]1C(=O)N[C@@H](Cc1ccccc1)C(N)=O; test: purified protein, by the assay type; settings: other: X = Gln, substrate; pH 7.1; 30.0 °C
[5] = substrate: CC(C)C[C@H](NC(=O)[C@H](CCC(N)=O)NC(=O)[C@@H]1CCCN1C(=O)[C@H](CCC(N)=O)NC(=O)[C@@H]1CCCN1)C(=O)N1CCC[C@H]1C(=O)N[C@@H](Cc1ccc(O)cc1)C(=O)O; test: purified protein, by the assay type; settings: other: X = Gln, substrate; pH 7.1; 30.0 °C
[6] = Table 3, sulfonamides and sulfonyl hydrazides, competitive inhibition constant, read-out: inhibition constant
[7] = X = acivicin, 200 mM MOPS pH 7.1, 30° C.

In the case of `[N-]=[N+]=CC(=O)CC[C@H](N)C(=O)O` [H—X—OH, X=DON, 6-diazo-5-oxo-norleucine, reference compound], the “kinh (reactive motif DON)” value ([1]; X = 6-diazo-5-oxo-norleucine) is reported as 0.025 min⁻¹ and the “kinh/KI (reactive motif DON)” value ([1]; X = 6-diazo-5-oxo-norleucine) is reported as 0.2 min^−1M^−1.

`CCOC(=O)[C@H](CCS(N)(=O)=O)NC(=O)OCc1ccccc1` [(S)-2-Benzyloxycarbonylamino-4-sulfamoyl-butyric acid ethyl ester] was tested, and the Ki [1, 6] was 4.4 mM.

In the case of `COC(=O)C(CCC(=O)C=[N+]=[N-])NC(=O)OCc1ccccc1` (centres unmarked) [Cbz-X—OMe, X=DON], the “kinh (reactive motif DON)” value ([1]; X = 6-diazo-5-oxo-norleucine) is reported as 0.12 min⁻¹, the “kinh/KI (reactive motif DON)” value ([1]; X = 6-diazo-5-oxo-norleucine) is reported as 890 min^−1M^−1 and the Ki ([1]; X = 6-diazo-5-oxo-norleucine, read-out: KI (reactive motif DON)) is reported as 0.135 mM.

For `N[C@H](C(=O)O)[C@@H]1CC(Cl)=NO1` [H—X—OH, X=Aci, acivicin, reference compound], the “kinh/KI (reactive motif Aci)” value ([1]; X = acivicin) was 0.17 min^−1M^−1, the “kinh (reactive motif Aci)” value [1, 7] was 0.015 min⁻¹ and the Ki ([1]; X = acivicin, 200 mM MOPS pH 7.1, 30° C., read-out: KI (reactive motif Aci)) was 87 mM.

With `CC(=O)N1CCC[C@H]1C(=O)N[C@@H](CCC(N)=O)C(=O)N1CCC[C@H]1C(=O)N[C@@H](CCC(=O)C=[N+]=[N-])C(=O)N[C@@H](CC(C)C)C(=O)N1CCC[C@H]1C(=O)N[C@@H](Cc1ccccc1)C(N)=O` [Ac—PQP—X—LPF—NH2, X=DON, Ac-Pr-Gl-Pr-DonLeu-Pr-PheNH2] (Ac-PQP[DON]LPF-NH2) the “kinh (reactive motif DON)” value ([1]; X = 6-diazo-5-oxo-norleucine) was 0.2 min⁻¹ and the “kinh/KI (reactive motif DON)” value ([1]; X = 6-diazo-5-oxo-norleucine) was 2.9 × 10^6 min^−1M^−1.

Work on `NS(=O)(=O)CCC(NC(=O)OCc1ccccc1)C(=O)NCC(=O)O` (centres unmarked) [Z-Sab-Gly] yielded a Ki ([1]; Table 2, Sab derivatives, reversible competitive inhibition, read-out: KI) of 8 mM.

In the case of `CC(C)C[C@H](NC(=O)[C@@H](NC(=O)[C@@H]1CCCN1C(=O)[C@H](CCC(N)=O)NC(=O)[C@@H]1CCCN1)[C@@H]1CC(Cl)=NO1)C(=O)N1CCC[C@H]1C(=O)N[C@@H](Cc1ccc(O)cc1)C(=O)O` [PQP—X—LPY, X=Aci, Pro-Gln-Pro-Aci-Leu-Pro-Tyr] (H-PQP[X1]LPY-OH; C-terminus assumed), the “kinh/KI (reactive motif Aci)” value ([1]; X = acivicin) is reported as 18 min^−1M^−1 and the “kinh (reactive motif Aci)” value [1, 7] is reported as 0.014 min⁻¹.

With `CCOC(=O)[C@H](CCS(=O)(=O)NNc1ccccc1)NC(=O)OCc1ccccc1` [(S)-2-Benzyloxycarbonylamino-4-phenylhydrazinosulfonyl-butyric acid ethyl ester] the Ki [1, 6] was 0.13 mM.

In the case of `COC(=O)[C@H](CCC(N)=O)NC(=O)OCc1ccccc1` [Cbz-X—OMe, X=Gln], the Km [2] is reported as over 30000 µM.

In the case of `CCOC(=O)[C@H](CCS(=O)(=O)NN)NC(=O)OCc1ccccc1` [(S)-2-Benzyloxycarbonylamino-4-hydrazinosulfonyl-butyric acid ethyl ester], the Ki [1, 6] is reported as 2.2 mM.

B1: human tTGase (Homo sapiens) (protein)
chain: MAEELVLERCDLELETNGRDHHTADLCREKLVVRRGQPFWLTLHFEGRNYEASVDSLTFSVVTGPAPSQEAGTKARFPLRDAVEEGDWTATVVDQQDCTLSLQLTTPANAPIGLYRLSLEASTGYQGSSFVLGHFILLFNAWCPADAVYLDSEEERQEYVLTQQGFIYQGSAKFIKNIPWNFGQFEDGILDICLILLDVNPKFLKNAGRDCSRRSSPVYVGRVVSGMVNCNDDQGVLLGRWDNNYGDGVSPMSWIGSVDILRRWKNHGCQRVKYGQCWVFAAVACTVLRCLGIPTRVVTNYNSAHDQNSNLLIEYFRNEFGEIQGDKSEMIWNFHCWVESWMTRPDLQPGYEGWQALDPTPQEKSEGTYCCGPVPVRAIKEGDLSTKYDAPFVFAEVNADVVDWIQQDDGSVHKSINRSLIVGLKISTKSVGRDEREDITHTYKYPEGSSEEREAFTRANHLNKLAEKEETGMAMRIRVGQSMNMGSDFDVFAHITNNTAEEYVCRLLLCARTVSYNGILGPECGTKYLLNLNLEPFSEKSVPLCILYEKYRDCLTESNLIKVRALLVEPVINSYLLAERDLYLENPEIKIRILGEPKQKRKLVAEVSLQNPLPVALEGCTFTVEGAGLTEEQKTVEIPDPVEAGEEVKVRMDLLPLHMGLHKLVVNFESDKLKAVKGFRNVIIGPA
Work on B1 yielded a Km [3] of 40 µM and a kcat [3] of 0.333 s⁻¹.

B2: recombinant human tissue transglutaminase (Homo sapiens) (protein)
chain: MAEELVLERCDLELETNGRDHHTADLCREKLVVRRGQPFWLTLHFEGRNYEASVDSLTFSVVTGPAPSQEAGTKARFPLRDAVEEGDWTATVVDQQDCTLSLQLTTPANAPIGLYRLSLEASTGYQGSSFVLGHFILLFNAWCPADAVYLDSEEERQEYVLTQQGFIYQGSAKFIKNIPWNFGQFEDGILDICLILLDVNPKFLKNAGRDCSRRSSPVYVGRVVSGMVNCNDDQGVLLGRWDNNYGDGVSPMSWIGSVDILRRWKNHGCQRVKYGQCWVFAAVACTVLRCLGIPTRVVTNYNSAHDQNSNLLIEYFRNEFGEIQGDKSEMIWNFHCWVESWMTRPDLQPGYEGWQALDPTPQEKSEGTYCCGPVPVRAIKEGDLSTKYDAPFVFAEVNADVVDWIQQDDGSVHKSINRSLIVGLKISTKSVGRDEREDITHTYKYPEGSSEEREAFTRANHLNKLAEKEETGMAMRIRVGQSMNMGSDFDVFAHITNNTAEEYVCRLLLCARTVSYNGILGPECGTKYLLNLNLEPFSEKSVPLCILYEKYRDCLTESNLIKVRALLVEPVINSYLLAERDLYLENPEIKIRILGEPKQKRKLVAEVSLQNPLPVALEGCTFTVEGAGLTEEQKTVEIPDPVEAGEEVKVRMDLLPLHMGLHKLVVNFESDKLKAVKGFRNVIIGPA
In the case of B2, the Km [4] is reported as 400 µM, the kcat [4] is reported as 0.667 s⁻¹ and the kcat/Km [4] is reported as 1620 M⁻¹ s⁻¹. The Km [5] was 300 µM.
